{"source": "paper PMC7253723", "about": "“Chain-End Modifications and Sequence Arrangements of Antimicrobial Peptoids for Mediating Activity and Nano-Assembly” (Frontiers in Chemistry, 2020)", "key": {"[1]": {"tested_on": "Staphylococcus aureus (NCTC 4135)", "format": "cell-based", "procedure": "(§1) Technical triplicates (n = 3) or more of samples at each concentration were analyzed."}, "[2]": {"tested_on": "Pseudomonas aeruginosa (PA01)", "format": "cell-based", "procedure": "as §1"}, "[3]": {"tested_on": "Escherichia coli (ATCC 25922)", "format": "cell-based", "procedure": "as §1"}, "[4]": {"assay": "Critical aggregation concentration (CAC) Nile red fluorescence assay", "format": "physicochemical", "settings": "Nile red fluorescence (~10 nM NR in water), lipopeptoids 2.5 × 10^-2 to 1 wt.%, excitation 552 nm, peak around 610 nm, room temperature; inflection in emission intensity", "procedure": "Nile red (NR) fluorescence was used to measure critical aggregation concentration (CAC) for the synthesized lipopeptoids. Lipopeptoids were dissolved at 2.5 × 10^−2 to 1 wt.% in a dilute solution of Nile red (0.25 μg/100 mL, i.e. ~10 nM concentration) prepared in water. NR was excited at 552 nm and emission was recorded at room temperature in the range 550–750 nm using a 10.0 × 5.0 mm^2 quartz cell (Jasco spectrofluorimeter FP-6500). The intensity of the peak centered around 610 nm is shown in the data presented in Section results and discussion.\nWe first examined with a CAC assay whether coupling a hydrophobic tail to AMPMs and inserting the kk and EG2 components is a viable design for generating self-assembling lipopeptoids. The CAC measures the concentration above which hydrophobic pockets (e.g., lipophilic cores of micelles) are formed, and lower CACs indicate higher propensities of self-assembly. In our experiments, the CAC is indicated by an inflection in the increase in emission intensity of a lipophilic fluorophore tracer (Nile Red) that emits more strongly when partitioned into hydrophobic lower dielectric environments (see Figure S6 for an example analysis)."}, "[5]": {"settings": "MH broth microdilution (CLSI M07-A10), ~5 × 10^5 CFU/mL, overnight 37°C, OD 600 nm, MIC = concentration with OD halfway between minimum and maximum, sigmoidal fit ± SD, n = 3 or more, maximum tested 100 μM"}, "[6]": {"settings": "PA01, MH broth microdilution (CLSI M07-A10), ~5 × 10^5 CFU/mL, overnight 37°C, OD 600 nm, MIC = concentration with OD halfway between minimum and maximum, sigmoidal fit ± SD, n = 3 or more, maximum tested 100 μM"}}, "note": "Where two headings read alike, the source gives them in different places. Square brackets hold non-standard residues; d marks the D form. Peptide text beside a SMILES is read from it. * marks the point of attachment. N(1-naphthylmethyl)Gly = O=C(O)CNCc1cccc2ccccc12; N(4-MeBn)Gly = Cc1ccc(CNCC(=O)O)cc1; Palmitoyl = CCCCCCCCCCCCCCCC(=O)*; Nspe = C[C@H](NCC(=O)O)c1ccccc1; AEEA = NCCOCCOCC(=O)O; NBuGly = CCCCNCC(=O)O; Nlys = NCCCCNCC(=O)O"}
{"molecule": "CCCCN(CC(=O)N(CCCCN)CC(=O)N(CCCCN)CC(=O)N(CCCCN)CC(=O)N(CCCCN)CC(N)=O)C(=O)CN(Cc1cccc2ccccc12)C(=O)CN(Cc1ccc(C)cc1)C(=O)CNCc1cccc2ccccc12", "note": "[4k, reference compound] (H-[N(1-naphthylmethyl)Gly][N(4-MeBn)Gly][N(1-naphthylmethyl)Gly][NBuGly][Nlys][Nlys][Nlys][Nlys]-NH2)", "values": [{"measurement": "Antimicrobial activity (MIC) S. aureus", "setting": "[1]", "result": "7 ± 0.1", "unit": "µM"}, {"measurement": "Antimicrobial activity (MIC) P. aeruginosa", "setting": "[2]", "result": "19 ± 0.4", "unit": "µM"}, {"measurement": "Antimicrobial activity (MIC) E. coli", "setting": "[3]", "result": "7 ± 0.3", "unit": "µM"}]}
{"molecule": "C[C@@H](c1ccccc1)N(CC(N)=O)C(=O)CN(C(=O)CN(CCCCN)C(=O)CN(C(=O)CN(C(=O)CNCCCCN)[C@@H](C)c1ccccc1)[C@@H](C)c1ccccc1)[C@@H](C)c1ccccc1", "note": "[(kss)2, reference compound] (H-[Nlys][Nspe][Nspe][Nlys][Nspe][Nspe]-NH2)", "values": [{"measurement": "Antimicrobial activity (MIC) S. aureus", "setting": "[1]; [5]", "result": "41 ± 2", "unit": "µM"}, {"measurement": "Antimicrobial activity (MIC) P. aeruginosa", "setting": "[2]; [6]", "result": "44 ± 2", "unit": "µM"}, {"measurement": "Antimicrobial activity (MIC) E. coli", "setting": "[3]; [5]", "result": ">100", "unit": "µM"}]}
{"molecule": "C[C@@H](c1ccccc1)N(CC(N)=O)C(=O)CN(C(=O)CN(CCCCN)C(=O)CN(C(=O)CN(C(=O)CN(CCCCN)C(=O)CN(C(=O)CN(C(=O)CNCCCCN)[C@@H](C)c1ccccc1)[C@@H](C)c1ccccc1)[C@@H](C)c1ccccc1)[C@@H](C)c1ccccc1)[C@@H](C)c1ccccc1", "note": "[(kss)3, reference compound] (H-[Nlys][Nspe][Nspe][Nlys][Nspe][Nspe][Nlys][Nspe][Nspe]-NH2)", "values": [{"measurement": "Antimicrobial activity (MIC) S. aureus", "setting": "[1]", "result": "2 ± 0.2", "unit": "µM"}, {"measurement": "Antimicrobial activity (MIC) P. aeruginosa", "setting": "[2]", "result": "15 ± 1", "unit": "µM"}, {"measurement": "Antimicrobial activity (MIC) E. coli", "setting": "[3]", "result": "4 ± 0.2", "unit": "µM"}]}
{"molecule": "C[C@@H](c1ccccc1)N(CC(N)=O)C(=O)CN(C(=O)CN(CCCCN)C(=O)CN(C(=O)CN(C(=O)CN(CCCCN)C(=O)CN(C(=O)CN(C(=O)CN(CCCCN)C(=O)CN(C(=O)CN(C(=O)CNCCCCN)[C@@H](C)c1ccccc1)[C@@H](C)c1ccccc1)[C@@H](C)c1ccccc1)[C@@H](C)c1ccccc1)[C@@H](C)c1ccccc1)[C@@H](C)c1ccccc1)[C@@H](C)c1ccccc1", "note": "[(kss)4, reference compound] (H-[Nlys][Nspe][Nspe][Nlys][Nspe][Nspe][Nlys][Nspe][Nspe][Nlys][Nspe][Nspe]-NH2)", "values": [{"measurement": "Antimicrobial activity (MIC) S. aureus", "setting": "[1]; [5]", "result": "4 ± 0.3", "unit": "µM"}, {"measurement": "Antimicrobial activity (MIC) P. aeruginosa", "setting": "[2]; [6]", "result": "16 ± 0.3", "unit": "µM"}, {"measurement": "Antimicrobial activity (MIC) E. coli", "setting": "[3]; [5]", "result": "6 ± 0.4", "unit": "µM"}]}
{"molecule": "CCCCCCCCCCCCCCCC(=O)NCCOCCOCC(=O)N(CC(=O)N(CC(=O)N(CC(=O)N(CCCC)CC(=O)N(CCCCN)CC(=O)N(CCCCN)CC(=O)N(CCCCN)CC(=O)N(CCCCN)CC(N)=O)Cc1cccc2ccccc12)Cc1ccc(C)cc1)Cc1cccc2ccccc12", "note": "[C15-EG2-4k] ({Palmitoyl-AEEA}-[N(1-naphthylmethyl)Gly][N(4-MeBn)Gly][N(1-naphthylmethyl)Gly][NBuGly][Nlys][Nlys][Nlys][Nlys]-NH2)", "values": [{"measurement": "CAC", "setting": "[4]", "result": "320 ± 24", "unit": "µM"}]}
{"molecule": "CCCCCCCCCCCCCCCC(=O)NCCOCCOCC(=O)N(CC(=O)N(CC(=O)N(CC(=O)N(CCCC)CC(=O)N(CCCCN)CC(=O)N(CCCCN)CC(=O)N(CCCCN)CC(=O)N(CCCCN)CC(=O)N(CCCCN)CC(N)=O)Cc1cccc2ccccc12)Cc1ccc(C)cc1)Cc1cccc2ccccc12", "note": "[C15-EG2-5k] ({Palmitoyl-AEEA}-[N(1-naphthylmethyl)Gly][N(4-MeBn)Gly][N(1-naphthylmethyl)Gly][NBuGly][Nlys][Nlys][Nlys][Nlys][Nlys]-NH2)", "values": [{"measurement": "CAC", "setting": "[4]", "result": "360 ± 25", "unit": "µM"}]}
{"molecule": "CCCCCCCCCCCCCCCC(=O)NCCOCCOCC(=O)N(CC(=O)N(CCCCN)CC(=O)N(CC(=O)N(CCCCN)CC(=O)N(CC(=O)N(CCCCN)CC(=O)N(CCCC)CC(=O)N(CCCCN)CC(N)=O)Cc1cccc2ccccc12)Cc1ccc(C)cc1)Cc1cccc2ccccc12", "note": "[C15-EG2-kykbk] ({Palmitoyl-AEEA}-[N(1-naphthylmethyl)Gly][Nlys][N(4-MeBn)Gly][Nlys][N(1-naphthylmethyl)Gly][Nlys][NBuGly][Nlys]-NH2)", "values": [{"measurement": "CAC", "setting": "[4]", "result": "410 ± 32", "unit": "µM"}]}
